The record followed here is PubChem BioAssay AID732 (Emory University Molecular Libraries Screening Center, 2007).

Values joined by “and” are separate entries in the source; they are usually repeats but may differ in a detail not shown here. Equal entries are not always repeated. Active and inactive are the calls of the source. No rule for the calls is given here.

The assay concerns in vivo angiogenesis, blood vessel count. Briefly: angiogenesis inhibition in living animals, in vivo study, HTS (AID 732).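 Also: zebrafish embryos dosed at one day post fertilization; 0% = reference inhibitor and 100% = plate mean.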 The note with it: hits give low values;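 tested at 30 µM in the well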.
As for `COc1cc(CC(=O)O)ccc1O`, the vessel count % control is 116% (inactive).

Consider `CO[C@H]1CC=C2CCN3CCC4=C(CC(=O)OC4)[C@]23C1`, for which the vessel count % control is 105% (inactive).

With `CN(C)CC/C=C1\c2ccccc2COc2ccccc21`, the vessel count % control was 97.3% (inactive).

On to `NCCc1c[nH]c2ccc(O)cc12`, for which the vessel count % control is 84.5% (inactive).

In the case of `c1ccc(CN2CCC3(CCCc4ccccc43)CC2)cc1`, the vessel count % control was 128% (inactive).

`OCCN(CCO)c1nc(N2CCCCC2)c2nc(N(CCO)CCO)nc(N3CCCCC3)c2n1`: the vessel count % control was 109% (inactive).

For the compound `CC(N)C1CCC(C(=O)Nc2ccncc2)CC1` (configuration not stated), the vessel count % control was 111% (inactive).

As to `Oc1cc2c(cc1O)CN(C(=S)NCCc1ccc(Cl)cc1)CCC2`, the vessel count % control is 93.3% (inactive).

As to `CCCNC[C@H](O)COc1ccccc1C(=O)CCc1ccccc1`, the vessel count % control is 93.1% (inactive).

In the case of `N[C@@H](CC(=O)O)C(=O)O`, the vessel count % control is 94.7% (inactive).

Turning to `Cc1nc2c([nH]1)c(=O)n(C)c(=O)n2Cc1ccco1`, the vessel count % control is 93.1% (inactive).

As for `O=c1cc(N2CCOCC2)oc2c(-c3ccccc3)cccc12`, the vessel count % control was 120% (inactive).

Take `COc1cc(Cc2cnc(N)nc2N)cc(OC)c1OC`: the vessel count % control is 114% (inactive).

As to `CCCC1O[C@@H]2C[C@H]3[C@@H]4CCC5=CC(=O)C=C[C@]5(C)[C@H]4[C@@H](O)C[C@]3(C)[C@]2(C(=O)CO)O1` (some centres not stated), the vessel count % control was 120% (inactive).

Turning to `CC(C)NCC(O)COc1ccc(CCOCC2CC2)cc1` (configuration not stated), the vessel count % control is 94.3% (inactive).

As to `C=CC1(C)CC(=O)C2(O)C(C)(O1)C(OC(C)=O)C(O)C1C(C)(C)CCC(O)C12C` (configuration not stated), the vessel count % control was 97% (inactive).

With `CCN(CCCl)Cc1ccccc1Br`, the vessel count % control was 99.8% (inactive).

`O=C(C1CCCCC1)N1CC(=O)N2CCc3ccccc3C2C1` (configuration not stated): the vessel count % control was 101% (inactive).

Turning to `CC(=O)O[C@H]1C[C@@H]2CC[C@@H]3[C@H](CC[C@@]4(C)[C@H]3C[C@H]([N+]3(C)CCCCC3)[C@@H]4OC(C)=O)[C@@]2(C)C[C@@H]1[N+]1(C)CCCCC1`, the vessel count % control is 98% (inactive).

As for `CC(=O)[C@@]1(O)CC[C@H]2[C@@H]3CCC4=CC(=O)CC[C@]4(C)[C@H]3CC[C@@]21C`, the vessel count % control is 98.7% (inactive).

As for `C[C@]12N[C@H](Cc3ccccc31)c1ccccc12`, the vessel count % control was 85.8% (inactive).

As to `CNc1cc(NS(=O)(=O)c2ccc(N)cc2)nc(NC)n1`, the vessel count % control was 81.3% (inactive).

As for `CC(=O)C(C)=O`, the vessel count % control is 99.7% (inactive).

In the case of `CN(C)CC[C@@H](c1ccc(Br)cc1)c1ccccn1`, the vessel count % control was 102% (inactive).

`C1COC(NC(C2CC2)C2CC2)=N1`: the vessel count % control was 100% (inactive).

For `C=CCN1CC[C@]23c4c5ccc(O)c4O[C@H]2/C(=N/NC(=O)c2ccccc2)CC[C@@]3(O)[C@H]1C5`, the vessel count % control is 120% (inactive).

As for `COc1ccc(CCNC[C@@H](O)c2ccc(O)cc2)cc1OC`, the vessel count % control is 105% (inactive).

As to `CCOC(=O)C1=C[C@]2(CC)CCCN3CCc4c(n1c1ccccc41)[C@@H]32`, the vessel count % control was 0% (inactive).

Take `CC/C(=C(\c1ccccc1)c1ccc(OCCN(C)C)cc1)c1ccccc1`: the vessel count % control was 64.7% (inactive).

Take `COc1cc(NS(C)(=O)=O)ccc1Nc1c2ccccc2nc2ccccc12`: the vessel count % control was 106% (inactive).

With `CN(C)C(=O)Oc1cccc([N+](C)(C)C)c1`, the vessel count % control is 87.6% (inactive).

On to `CC(C)(Sc1ccc(CCN(CCCCC2CCCCC2)C(=O)NC2CCCCC2)cc1)C(=O)O`, for which the vessel count % control was 103% (inactive).

Take `c1ccc2c(c1)CCCC2C1=NCCN1` (configuration not stated): the vessel count % control is 76% (inactive).

For `O=[N+]([O-])c1ccc(-c2nc(-c3ccc(F)cc3)c(-c3ccncc3)[nH]2)cc1`, the vessel count % control is 124% (inactive).

`COc1ccc2[nH]c3c(c2c1)CCNC3`: the vessel count % control was 137% (inactive).

As for `CNC(=O)[C@H]1O[C@@H](n2cnc3c(NCc4cccc(I)c4)ncnc32)C(O)[C@H]1O` (some centres not stated), the vessel count % control is 83.3% (inactive).

On to `C[C@]12CCC(=O)C=C1CC[C@@H]1[C@@H]2CC[C@@]2(C)[C@H]1CC[C@]2(O)C(=O)CO`, for which the vessel count % control was 106% (inactive).

For `COc1cc(C(O)C(=O)O)ccc1O` (configuration not stated), the vessel count % control was 92.5% (inactive).

With `CN(N=O)c1cc(O)ccc1O`, the vessel count % control was 88% (inactive).

As to `CN(C)CCC=C1c2ccccc2C=Cc2ccccc21`, the vessel count % control was 82.4% (inactive).

Regarding `CCCN(CCC)C(=O)C(CCC(=O)O)NC(=O)c1ccccc1` (configuration not stated), the vessel count % control is 103% (inactive).

Turning to `C[N+](C)(C)CCCCCC[N+](C)(C)C`, the vessel count % control was 115% (inactive) and 117% (inactive).

For `CCCn1c(=O)c2[nH]c(-c3ccc(OCC(=O)NCCN)cc3)nc2n(CCC)c1=O`, the vessel count % control is 99.8% (inactive).

For the compound `CC(O)C(C)OC(=O)[C@@H]1C[C@@H]2c3cccc4c3c(cn4C(C)C)C[C@H]2N(C)C1` (some centres not stated), the vessel count % control was 90.9% (inactive).

`CC(C)NCC(O)c1ccc(O)c(O)c1` (configuration not stated): the vessel count % control was 97.1% (inactive).

Take `CCN(CC)CC#CCOC(=O)C(O)(c1ccccc1)C1CCCCC1` (configuration not stated): the vessel count % control is 125% (inactive).

On to `CC(=O)c1ccc(S(=O)(=O)NC(=O)NC2CCCCC2)cc1`, for which the vessel count % control was 84.8% (inactive).

In the case of `Cc1nc(N=Nc2ccc(C(=O)O)cc2)c(COP(=O)(O)O)c(C=O)c1O`, the vessel count % control was 93.9% (inactive).

Turning to `COCc1nc2c([nH]1)c(=O)n(C)c(=O)n2CC(C)C`, the vessel count % control is 93% (inactive).

In the case of `O=C(CCNNC(=O)c1ccncc1)NCc1ccccc1`, the vessel count % control is 67.2% (inactive).

Turning to `Nc1ccc(N2C(=O)c3ccccc3C2=O)c(Cl)c1`, the vessel count % control is 78.4% (inactive).

For the compound `NCCCCNS(=O)(=O)c1cccc2c(Cl)cccc12`, the vessel count % control is 107% (inactive).

As for `CC[C@@H](C)[C@H]1O[C@]2(CC[C@@H]1C)C[C@@H]1C[C@@H](C/C=C(\C)[C@@H](O[C@H]3C[C@H](OC)[C@@H](O[C@H]4C[C@H](OC)[C@@H](O)[C@H](C)O4)[C@H](C)O3)[C@@H](C)/C=C/C=C3\CO[C@@H]4[C@H](O)C(C)=C[C@@H](C(=O)O1)[C@]34O)O2`, the vessel count % control was 78.7% (inactive).

As for `O=c1cc(-c2ccc(O)cc2)oc2cc(O)cc(O)c12`, the vessel count % control is 87.4% (inactive).

With `CCN(CC)CCOC(=O)c1cc(Cl)c(N)cc1OC`, the vessel count % control is 114% (inactive).

With `Cc1ccc2[nH]c(O)c(C3=Nc4ccc(Br)cc4C3=O)c2c1`, the vessel count % control is 108% (inactive).

Turning to `Cc1ccc2c(c1)C(N1CCN(C)CC1)=Nc1cccnc1N2`, the vessel count % control is 127% (inactive).

Consider `NCCCCCCCCCCN`, for which the vessel count % control was 146% (inactive).

Take `C[N+](C)(C)CCOC(N)=O`: the vessel count % control was 114% (inactive).

In the case of `CN(C)CCCCSC(=N)N`, the vessel count % control is 105% (inactive).

`CCCC(C)(COC(N)=O)COC(=O)NC(C)C` (configuration not stated): the vessel count % control is 103% (inactive).

Consider `COCCCC/C(=N\OCCN)c1ccc(C(F)(F)F)cc1`, for which the vessel count % control was 145% (inactive).

As for `CN(C)CCCN1c2ccccc2Sc2ccccc21`, the vessel count % control is 93.7% (inactive).

In the case of `S=C(Nc1ccccc1)Nc1nccs1`, the vessel count % control is 61.2% (inactive).

Turning to `OC[C@H]1O[C@@H](n2cnc3c(Nc4ccccc4)ncnc32)C(O)[C@H]1O` (some centres not stated), the vessel count % control was 110% (inactive).

As to `CCCCOC(=O)NS(=O)(=O)c1sc(CC(C)C)cc1-c1ccc(Cn2c(CC)nc3c(C)cc(C)nc32)cc1`, the vessel count % control was 89% (inactive).

Regarding `Cc1ccc(=O)n(-c2ccccc2)c1`, the vessel count % control was 92.7% (inactive).

Consider `CCCN(CCC)[C@@H]1CCc2c(F)ccc(O)c2C1`, for which the vessel count % control was 78.7% (inactive).

For the compound `CC(O)C(O)[C@H]1CNc2nc(N)[nH]c(=O)c2N1` (some centres not stated), the vessel count % control is 125% (inactive).

On to `CN1CCCC1CCOC(C)(c1ccccc1)c1ccc(Cl)cc1` (configuration not stated), for which the vessel count % control is 67.5% (inactive).

On to `C[N+](C)(C)CCCCCCCCCC[N+](C)(C)C`, for which the vessel count % control is 100% (inactive).

`O=C(O)C1=CCNCC1`: the vessel count % control is 131% (inactive).

In the case of `C=CCN1CCC23c4c5ccc(O)c4O[C@H]2C(=O)CC[C@@]3(O)C1C5` (some centres not stated), the vessel count % control was 88.4% (inactive).

Take `COC(=O)c1c(-c2cc(OC)c(OC)c(OC)c2)c2ccnc(OCc3ncccn3)c2c(=O)n1Cc1ccnc(C)c1`: the vessel count % control was 99.4% (inactive).

Turning to `O=S(=O)(c1cccc2c(I)cccc12)N1CCCNCC1`, the vessel count % control was 114% (inactive).

For the compound `CCCN(CCC)[C@@H]1CCc2ccc(O)cc2C1`, the vessel count % control was 93.2% (inactive).

For `CCCCCCCCCCCCCCCCCC(=O)OC(CC(=O)O)C[N+](C)(C)C` (configuration not stated), the vessel count % control is 71.9% (inactive).

Regarding `CCCCS(=N)(=O)CCC(N)C(=O)O` (configuration not stated), the vessel count % control is 137% (inactive).

As to `CCNC(=O)[C@H]1O[C@@H](n2cnc3c(N)ncnc32)C(O)[C@H]1O` (some centres not stated), the vessel count % control was 110% (inactive).

Regarding `CNC(=O)OCC[N+](C)(C)C`, the vessel count % control is 96.2% (inactive).

For `CC[C@@H](CO)NC(=O)[C@@H]1C=C2c3cccc4[nH]cc(c34)C[C@H]2N(C)C1`, the vessel count % control was 121% (inactive).

For the compound `NCCc1cnc[nH]1`, the vessel count % control was 93.3% (inactive).

As for `CC(C)(C)NCC(O)c1cc(O)cc(O)c1` (configuration not stated), the vessel count % control is 93.9% (inactive).

As for `CC(=O)Nc1nnc(S(N)(=O)=O)s1`, the vessel count % control was 78.2% (inactive).

For the compound `CCCCNC(=O)NS(=O)(=O)c1ccc(C)cc1`, the vessel count % control is 87.6% (inactive).

With `CC(C)Cc1ccc([C@H](C)C(=O)O)cc1`, the vessel count % control is 66.8% (inactive).

Consider `CCn1cc(C(=O)O)c(=O)c2ccc(Cc3ccccc3)nc21`, for which the vessel count % control is 108% (inactive).
